No end group written: not given here. *: point of attachment. Biotin = O=C1N[C@H]2[C@H](CS[C@H]2CCCCC(=O)*)N1
tested on: live cells in suspension or subconfluent monolayers; format: cell-based; conditions: not given

Substance	Concentration (translocation activity of transport peptides) [µM]	Concentration (translocation activity), mapping of restrictocin L3 loop [µM]	Concentration (translocation activity), optimization of E^rns peptide [µM]	Translocation activity (in words)
Biotin-KRIPNKKPGKKTTTKPTKKPTIKTTKKDLK-NH2 [MDN-13]	1.0			
Biotin-KGRTPIKFGKADCDRPPKHSQNGMGK-NH2		3.0		
Biotin-KRIPNKKPGKKTTTKPTKKPTIKTTKKDLKPQTTKPK-NH2 [MDN-12]	1.0			
Biotin-KKPTIKTTKK-NH2 [MDS-37]	0.3			
Biotin-RAGLQFPVGRVHRLLRK-NH2 [Antibacterial peptide Buforin, reference compound]	3.0			
Biotin-KRIPNKKPGKKTTTKPTKKPTIK-NH2 [MDP-08]	0.3			
Biotin-GRQLRIAGKRLRGRSK-NH2 [MDR-25]			0.3	
Biotin-DRRRRGSRPSGAERRRRRAAAA-NH2 [RSG-1.2]	0.1			
Biotin-PKKKRKV-NH2	0.1			
Biotin-TRRSKRRSHRKF-NH2 [Herpes virus 8 k8 protein (res 124-135)]	0.1			
Biotin-RRVTSWLGRQLRIAGKRLEGRSK-NH2 [MDL-8]			1.0	
Biotin-QTRRRERRAEKQAQW-NH2 [Bacteriophage lambda N peptide]	1.0			
Biotin-KKPGKKTTTKPTKKPTIKTTKK-NH2 [MDS-09]	0.3			
Biotin-RRRERRAEK-NH2	1.0			
Biotin-GRQLRRAGRRLRRRSR-NH2 [MDM-27]			0.1	
Biotin-KRPAAIKKAGQAKKKK-NH2 [Bipartite]	0.1			
Biotin-RPRGTRGKGRRIRR-NH2 [HIV-1 tat/tar]	0.3			

Substance	Concentration (translocation activity of transport peptides) [µM]	Concentration (translocation activity), mapping of restrictocin L3 loop [µM]	Concentration (translocation activity), optimization of E^rns peptide [µM]	Translocation activity (in words)
Biotin-DTRQARRNRRRRWRERQRAAAAR-NH2 [HIV-1 Rev]	0.1			
Biotin-KLIKGRTPIKFGKADCDRPPKHSQNGK-NH2		0.3		
Biotin-RVRSWLGRQLRIAGKRLEGRSK-NH2 [MDL-9]			1.0	
Biotin-RQLRIAGRRLRGRSR-NH2 [MDM-28]			0.1	
Biotin-KLIKGRTPIKFGKADCDRPPKHSQNGMGK-NH2		0.3		
Biotin-KKPGKKTTTKPTKK-NH2 [MDS-23]	0.3			
Biotin-KLIKGRTPIKFGKARCRRPPKHSGK-NH2		0.3		
Biotin-GRQLRRAGRRLRGRSR-NH2 [MDM-25]			0.1	
Biotin-KRIPNKKPKK [MDS-36]	0.03			
Biotin-KRIPNKKPGKKT-NH2 [MDP-32]	0.03			
MAGAININ (GIGKFLHSAGKFGKAFVGEIMKS; also: biotinylated (site not given here)) [reference compound]				did not
Biotin-KRIPNKKPGKKTTTKPTKK-NH2 [MDP-19]	0.3			
Biotin-GRQLRIAGRRLRRRSR-NH2 [MDM-26]			0.1	
Biotin-KSICKTIPSNKPKKK-NH2 [MDP-21]	1.0			
Biotin-KRIPNKKPGKK-NH2 [MDS-34]	0.03			
Biotin-KLIKGRTPIKFGKADCDRPPKHSGK-NH2		0.3		
Biotin-GNGKLIKGRTPIKFGKADCDRPPKHSQNGM-NH2		3.0		

same assay, conditions: Table 9; lower concentration = higher translocation activity

Substance	Concentration (translocation activity), optimization of E^rns peptide [µM]
Rhodamine-GRQLRIAGRRLRGRSR-NH2 [A931]	3.0
